In ChEMBL document CHEMBL5120957, “SARS-CoV-2: Novel Therapeutic Approaches for Diagnosis and Treatment” (ACS Med Chem Lett, 2022):

target: Integrin alpha-V/beta-6 (Homo sapiens, UniProt P06756+P18564); experiment: Inhibition of recombinant human alphavbeta6 integrin incubated for 2 hrs by microplate reader assay; type: protein-complex assay
Sequence (P06756 31-889 limits assumed): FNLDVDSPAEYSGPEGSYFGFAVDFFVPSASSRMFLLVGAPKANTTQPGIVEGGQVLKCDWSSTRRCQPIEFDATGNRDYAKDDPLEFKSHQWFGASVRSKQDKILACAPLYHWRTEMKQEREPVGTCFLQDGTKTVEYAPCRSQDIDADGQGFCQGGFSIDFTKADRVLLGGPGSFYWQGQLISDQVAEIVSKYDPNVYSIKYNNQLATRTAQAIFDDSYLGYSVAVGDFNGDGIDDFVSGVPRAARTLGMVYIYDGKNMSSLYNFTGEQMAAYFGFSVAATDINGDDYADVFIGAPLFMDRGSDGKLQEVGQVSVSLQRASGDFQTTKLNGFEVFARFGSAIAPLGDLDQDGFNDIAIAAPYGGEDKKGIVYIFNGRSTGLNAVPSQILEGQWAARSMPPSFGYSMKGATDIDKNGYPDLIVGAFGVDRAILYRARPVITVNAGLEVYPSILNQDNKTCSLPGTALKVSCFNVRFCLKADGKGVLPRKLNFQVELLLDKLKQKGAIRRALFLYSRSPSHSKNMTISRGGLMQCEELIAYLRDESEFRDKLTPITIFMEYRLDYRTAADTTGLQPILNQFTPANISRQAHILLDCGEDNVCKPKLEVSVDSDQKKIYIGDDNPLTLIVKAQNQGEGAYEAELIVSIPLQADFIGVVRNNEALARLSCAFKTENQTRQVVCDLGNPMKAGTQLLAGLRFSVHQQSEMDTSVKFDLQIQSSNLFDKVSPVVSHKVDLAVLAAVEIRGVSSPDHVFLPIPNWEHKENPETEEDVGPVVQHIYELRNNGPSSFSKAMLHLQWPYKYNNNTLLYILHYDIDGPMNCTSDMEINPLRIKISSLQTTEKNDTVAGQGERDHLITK
Sequence (P06756 891-1048 limits assumed): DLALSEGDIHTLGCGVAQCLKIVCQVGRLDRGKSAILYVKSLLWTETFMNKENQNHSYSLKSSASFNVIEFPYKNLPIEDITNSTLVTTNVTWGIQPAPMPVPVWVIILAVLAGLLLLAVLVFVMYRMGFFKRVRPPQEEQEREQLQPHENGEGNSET
Sequence (P18564 22-788 limits assumed): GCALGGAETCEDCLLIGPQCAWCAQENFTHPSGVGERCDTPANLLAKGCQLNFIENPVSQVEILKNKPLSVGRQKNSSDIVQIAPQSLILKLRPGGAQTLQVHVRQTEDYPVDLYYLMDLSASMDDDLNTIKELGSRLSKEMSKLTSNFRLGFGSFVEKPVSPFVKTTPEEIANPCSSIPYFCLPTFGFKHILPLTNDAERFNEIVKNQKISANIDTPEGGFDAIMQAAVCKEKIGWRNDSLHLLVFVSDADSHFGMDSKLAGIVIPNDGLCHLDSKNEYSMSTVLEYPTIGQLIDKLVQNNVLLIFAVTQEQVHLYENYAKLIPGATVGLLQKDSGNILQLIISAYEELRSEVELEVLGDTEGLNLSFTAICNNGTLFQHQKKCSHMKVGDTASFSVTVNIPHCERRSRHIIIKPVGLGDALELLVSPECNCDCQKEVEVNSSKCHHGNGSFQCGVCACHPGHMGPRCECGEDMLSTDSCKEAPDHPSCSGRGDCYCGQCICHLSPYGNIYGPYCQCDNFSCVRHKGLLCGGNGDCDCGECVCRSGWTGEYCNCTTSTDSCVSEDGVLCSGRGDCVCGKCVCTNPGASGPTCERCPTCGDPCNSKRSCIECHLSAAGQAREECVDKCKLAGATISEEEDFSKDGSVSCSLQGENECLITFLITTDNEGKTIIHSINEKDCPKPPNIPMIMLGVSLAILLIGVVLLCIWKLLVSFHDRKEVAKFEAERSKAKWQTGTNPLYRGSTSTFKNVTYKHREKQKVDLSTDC

Row | Compound | IC50 [µM]
1 | O=C(O)[C@H](CCN(CCCCc1ccc2c(n1)NCCC2)CCC(F)F)Nc1ncnc2ccccc12 | < 0.05
2 | CO[C@H](C)CN(CCCCc1ccc2c(n1)NCCC2)CC[C@H](Nc1ncnc2ccccc12)C(=O)O | < 0.05
3 | COCCN(CCCCc1ccc2c(n1)NCCC2)CC[C@H](Nc1cc(-n2cccn2)ncn1)C(=O)O | < 0.05
4 | COCCN(CCCCc1ccc2c(n1)NCCC2)CC[C@H](Nc1ncnc2cc(C(F)(F)F)ccc12)C(=O)O | 0.05
5 | COCCN(CCCCc1ccc2c(n1)NCCC2)CC[C@H](Nc1ncnc2cc(F)ccc12)C(=O)O | < 0.05
6 | COCCN(CCCCc1ccc2c(n1)NCCC2)CC[C@H](Nc1ncnc2ccccc12)C(=O)O [BEXOTEGRAST] | < 0.05
